The source of these data is patent US9242993B2, “Morpholino substituted bicyclic pyrimidine urea or carbamate derivatives as mTOR inhibitors” (CELLZOME LIMITED, priority 2011, dated 2016).

Test [1] has as its system S6RP serine-240/244 phosphorylation. The test can be described thus: In vitro phospho-S6 cellular assay. It is filed as cell-based. Conditions: Homo sapiens; HEK293T/17 cells, 2 hours; read-out: pS6 inhibition value (IC50), activity level. The source says:
Activation of mTOR signaling results in phosphorylation of several downstream targets. In cells, mTOR exists in two different protein complexes. The mTOR Complex-1 (mTORC1) phosphorylates and activates S6 Kinase 1 (S6K1) and S6 Kinase 2 (S6K2) (also known as p70S6K) which then phosphorylate S6 Ribosomal Protein (S6RP) (also known as RPS6)3. S6RP is phosphorylated on serine 235, serine 236, serine 240 and serine 244 by both pS6K1 and pS6K2. The mTOR Complex-2 (mTORC2) phosphorylates AKT on serine 473 which activates the AKT signaling pathway.
The assay measures a test compound's inhibition of S6RP serine-240/244 phosphorylation and inhibition of Akt serine-473 phosphorylation in human embryonic kidney derived HEK293T/17 cells (ATCC CRL-11268).
The HEK293T/17 cell line is maintained in DMEM media (Invitrogen catalogue number 41965-039) supplemented with 10% FCS at 37° C. in a 5% CO2 humidified incubator.
Cells are seeded in 96-well plates at 40,000 cells/well (pS6RP S240/244 assay) or 80,000 cells/well (pAkt S473 assay) in 90 μl growth media (DMEM, 2% FCS). Plates are incubated for 1 hour in a humidified incubator to allow the cells to adhere. Cells are treated with 8 concentrations of test compounds or DMSO alone for controls (final DMSO concentration 0.1%) and incubated at 37° C. for 2 hours. Then 20 μl of 5× concentrated lysis buffer (750 mM NaCl, 100 mM Tris pH7.4, 5 mM ADTA, 5 mM EGTA, 5% Triton X-100) is added, plates are sealed and incubated for 15 minutes at 4° C. with gentle shaking. After cell lysis, 25 μl cell lysate is transferred to a MesoScale plate coated with an antibody to pS6RP Ser240/244 (MesoScale Discovery K150DGD-3) or an antibody to pAkt Ser 473 (MesoScale Discovery K151DGD-3). Plates have been blocked before by incubation with 150 μl MesoScale Discovery Blocking Solution-A for 1 hour at room temperature followed by washing with 150 μl 1× Tris wash buffer per well. After the transfer of the cell lysate to the MSD plate, the pS6RP (or pAkt) protein is captured on the coated antibody by incubation at room temperature for 1 hour with gentle shaking. After the capture step the plate is washed three times with 150 μl of 1× Tris wash buffer per well. Then 25 μl detection antibody conjugated with a Sulfo-Tag is added and incubated for 1 hour at room temperature with gentle shaking. Subsequently the antibody solution is removed and the plate is washed 3 times with 150 μl 1× Tris wash buffer per well and 150 μl Read buffer is added. The plates are analysed on a MSD 2400 Plate Reader (MesoScale Discovery). Data analysis is performed using nonlinear regression for a sigmoidal dose-response with a variable slope.

For test [2], the target named is mTOR (Homo sapiens, UniProt P42345). Nature of the test: biochemical.
Test [3] deals with DNA-dependent protein kinase (DNA-PK) (Homo sapiens, UniProt P78527). The test can be described thus: biochemical.
Sequence of DNA-dependent protein kinase (DNA-PK) (P78527 whole entry): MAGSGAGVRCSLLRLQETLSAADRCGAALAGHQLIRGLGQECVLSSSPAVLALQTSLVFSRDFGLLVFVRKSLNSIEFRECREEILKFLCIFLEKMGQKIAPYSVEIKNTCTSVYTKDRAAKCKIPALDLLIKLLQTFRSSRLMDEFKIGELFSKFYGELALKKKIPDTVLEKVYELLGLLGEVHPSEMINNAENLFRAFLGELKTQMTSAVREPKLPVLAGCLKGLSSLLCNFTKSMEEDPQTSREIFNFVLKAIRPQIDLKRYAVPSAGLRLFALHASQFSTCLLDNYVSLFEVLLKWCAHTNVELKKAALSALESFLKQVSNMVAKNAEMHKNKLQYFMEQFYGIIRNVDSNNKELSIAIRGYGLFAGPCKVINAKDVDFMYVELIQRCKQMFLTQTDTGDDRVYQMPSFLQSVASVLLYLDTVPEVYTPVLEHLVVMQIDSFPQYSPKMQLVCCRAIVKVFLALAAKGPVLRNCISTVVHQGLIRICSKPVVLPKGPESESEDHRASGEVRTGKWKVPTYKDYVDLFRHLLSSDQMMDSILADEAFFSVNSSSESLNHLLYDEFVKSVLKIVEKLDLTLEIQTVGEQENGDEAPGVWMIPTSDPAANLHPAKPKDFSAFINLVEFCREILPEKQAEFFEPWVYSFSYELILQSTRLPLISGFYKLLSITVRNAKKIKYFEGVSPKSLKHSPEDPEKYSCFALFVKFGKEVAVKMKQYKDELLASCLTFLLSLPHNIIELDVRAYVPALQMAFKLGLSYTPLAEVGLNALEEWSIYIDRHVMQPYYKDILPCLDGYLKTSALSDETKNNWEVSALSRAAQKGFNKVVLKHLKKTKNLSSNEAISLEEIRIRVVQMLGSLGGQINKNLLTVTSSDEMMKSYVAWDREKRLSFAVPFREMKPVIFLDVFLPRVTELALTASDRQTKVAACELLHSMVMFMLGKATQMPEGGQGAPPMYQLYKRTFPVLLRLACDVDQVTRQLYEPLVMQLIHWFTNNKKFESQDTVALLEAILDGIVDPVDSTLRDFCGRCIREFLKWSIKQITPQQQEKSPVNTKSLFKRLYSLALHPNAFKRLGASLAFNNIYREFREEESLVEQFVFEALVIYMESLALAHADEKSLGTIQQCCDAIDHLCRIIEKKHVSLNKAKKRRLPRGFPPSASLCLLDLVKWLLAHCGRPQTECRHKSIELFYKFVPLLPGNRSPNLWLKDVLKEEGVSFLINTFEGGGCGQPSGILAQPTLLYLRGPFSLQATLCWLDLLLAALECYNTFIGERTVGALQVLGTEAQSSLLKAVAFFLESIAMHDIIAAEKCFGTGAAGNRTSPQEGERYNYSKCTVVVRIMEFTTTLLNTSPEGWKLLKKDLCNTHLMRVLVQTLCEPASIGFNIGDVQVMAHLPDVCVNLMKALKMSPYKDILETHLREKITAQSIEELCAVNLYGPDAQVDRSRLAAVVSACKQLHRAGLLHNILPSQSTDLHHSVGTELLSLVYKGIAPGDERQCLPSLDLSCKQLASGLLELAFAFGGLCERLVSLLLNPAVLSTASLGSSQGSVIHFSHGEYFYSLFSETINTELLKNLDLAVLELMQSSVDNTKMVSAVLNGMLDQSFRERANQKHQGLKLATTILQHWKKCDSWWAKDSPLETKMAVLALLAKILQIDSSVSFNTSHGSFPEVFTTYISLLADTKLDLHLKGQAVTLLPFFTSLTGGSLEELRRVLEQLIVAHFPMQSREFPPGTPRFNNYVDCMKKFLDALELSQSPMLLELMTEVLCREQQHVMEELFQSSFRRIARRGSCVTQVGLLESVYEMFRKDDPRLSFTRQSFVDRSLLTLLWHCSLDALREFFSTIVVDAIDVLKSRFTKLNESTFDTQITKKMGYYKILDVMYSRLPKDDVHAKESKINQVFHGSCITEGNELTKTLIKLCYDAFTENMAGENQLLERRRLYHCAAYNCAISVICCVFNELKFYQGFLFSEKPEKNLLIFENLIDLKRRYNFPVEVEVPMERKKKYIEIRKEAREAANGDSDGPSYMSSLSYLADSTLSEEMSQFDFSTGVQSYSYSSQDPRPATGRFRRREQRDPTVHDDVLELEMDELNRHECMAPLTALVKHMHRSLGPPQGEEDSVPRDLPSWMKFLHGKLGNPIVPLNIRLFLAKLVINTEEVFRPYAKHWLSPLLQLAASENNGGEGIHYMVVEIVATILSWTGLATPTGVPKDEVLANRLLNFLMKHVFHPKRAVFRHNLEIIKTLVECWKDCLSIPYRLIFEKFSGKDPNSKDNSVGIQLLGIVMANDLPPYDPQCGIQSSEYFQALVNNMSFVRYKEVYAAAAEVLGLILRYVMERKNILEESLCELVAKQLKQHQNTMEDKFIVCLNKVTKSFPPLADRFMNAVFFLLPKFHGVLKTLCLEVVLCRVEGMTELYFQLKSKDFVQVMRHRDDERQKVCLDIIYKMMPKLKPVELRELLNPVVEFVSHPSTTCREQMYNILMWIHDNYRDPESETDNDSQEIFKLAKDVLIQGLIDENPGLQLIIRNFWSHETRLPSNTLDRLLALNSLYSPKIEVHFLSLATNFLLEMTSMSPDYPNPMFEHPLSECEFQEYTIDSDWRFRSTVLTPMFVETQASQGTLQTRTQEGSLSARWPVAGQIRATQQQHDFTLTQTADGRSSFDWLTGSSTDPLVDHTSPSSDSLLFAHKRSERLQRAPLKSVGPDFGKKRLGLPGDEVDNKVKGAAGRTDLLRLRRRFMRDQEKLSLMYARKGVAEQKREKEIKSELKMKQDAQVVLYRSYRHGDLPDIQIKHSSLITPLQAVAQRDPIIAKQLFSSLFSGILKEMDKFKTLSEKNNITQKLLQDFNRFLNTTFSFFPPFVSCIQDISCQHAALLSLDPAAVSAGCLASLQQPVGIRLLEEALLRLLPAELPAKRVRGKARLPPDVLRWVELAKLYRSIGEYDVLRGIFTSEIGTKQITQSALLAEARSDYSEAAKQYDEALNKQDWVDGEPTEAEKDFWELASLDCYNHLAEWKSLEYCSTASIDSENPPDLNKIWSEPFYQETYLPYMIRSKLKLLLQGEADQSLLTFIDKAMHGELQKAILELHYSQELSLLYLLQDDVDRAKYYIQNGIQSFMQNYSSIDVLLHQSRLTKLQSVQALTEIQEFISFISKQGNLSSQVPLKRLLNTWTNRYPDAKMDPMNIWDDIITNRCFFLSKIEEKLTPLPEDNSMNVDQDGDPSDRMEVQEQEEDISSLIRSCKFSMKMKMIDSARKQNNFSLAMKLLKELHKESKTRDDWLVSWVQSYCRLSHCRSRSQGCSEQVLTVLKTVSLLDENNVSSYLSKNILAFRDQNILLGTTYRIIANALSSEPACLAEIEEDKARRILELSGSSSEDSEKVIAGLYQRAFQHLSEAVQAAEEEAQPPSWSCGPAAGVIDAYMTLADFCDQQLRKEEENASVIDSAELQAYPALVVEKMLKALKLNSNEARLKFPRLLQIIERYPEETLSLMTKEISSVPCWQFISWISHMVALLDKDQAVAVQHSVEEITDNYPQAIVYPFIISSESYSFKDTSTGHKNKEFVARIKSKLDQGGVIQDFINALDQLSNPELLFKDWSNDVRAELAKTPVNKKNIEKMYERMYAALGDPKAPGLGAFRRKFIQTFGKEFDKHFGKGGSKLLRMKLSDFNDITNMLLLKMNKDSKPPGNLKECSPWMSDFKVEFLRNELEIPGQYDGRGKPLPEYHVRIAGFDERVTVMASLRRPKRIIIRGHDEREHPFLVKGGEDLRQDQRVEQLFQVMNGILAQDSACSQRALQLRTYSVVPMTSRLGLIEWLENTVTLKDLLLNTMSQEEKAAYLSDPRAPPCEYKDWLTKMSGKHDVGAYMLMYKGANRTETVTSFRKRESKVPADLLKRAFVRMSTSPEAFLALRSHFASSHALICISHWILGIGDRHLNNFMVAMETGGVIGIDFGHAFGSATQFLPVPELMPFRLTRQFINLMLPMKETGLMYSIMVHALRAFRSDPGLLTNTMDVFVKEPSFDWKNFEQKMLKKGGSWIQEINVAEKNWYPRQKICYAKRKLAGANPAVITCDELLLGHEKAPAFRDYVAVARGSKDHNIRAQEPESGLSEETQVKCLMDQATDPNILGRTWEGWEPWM

Turning to `CCC1COCCN1c1nc(-c2ccc(NC(=O)NC3CC3)cc2)nc2c1C(C)S(=O)(=O)C2` (stereo not drawn) [Example 32, 1-cyclopropyl-3-(4-(4-(3-ethylmorpholino)-5-methyl-6,6-dioxido-5,7-dihydrothieno[3,4-d]pyrimidin-2-yl)phenyl)urea], the figures for the half-maximal inhibitory concentration (IC50) in test [1], in test [2] and in test [3] were less than 0.1 µM, less than 0.1 µM and greater than 10 µM, respectively.
Take `C[C@H]1COCCN1c1nc(-c2ccc(NC(=O)Nc3ccncc3)cc2)nc2c1CS(=O)(=O)C2` [Example 35, (S)-1-(4-(4-(3-methylmorpholino)-6,6-dioxido-5,7-dihydrothieno[3,4-d]pyrimidin-2-yl)phenyl)-3-(pyridin-4-yl)urea]: the IC50 is less than 0.1 µM in test [1], less than 0.1 µM in test [2] and greater than 10 µM in test [3].
With `CNC(=O)Nc1ccc(-c2nc3c(c(N4CCOC[C@@H]4C)n2)CS(=O)(=O)C3)cc1` [Example 12, (S)-1-methyl-3-(4-(4-(3-methylmorpholino)-6,6-dioxido-5,7-dihydrothieno[3,4-d]pyrimidin-2-yl)phenyl)urea], the half-inhibitory concentration (IC50) is 0.1 to 1 µM in test [1], less than 0.1 µM in test [2] and greater than 10 µM in test [3].
As to `O=C(Nc1ccc(-c2nc3c(c(N4CCOCC4)n2)CS(=O)(=O)C3)cc1)NC1CC1` [Example 18, 1-cyclopropyl-3-(4-(4-morpholino-6,6-dioxido-5,7-dihydrothieno[3,4-d]pyrimidin-2-yl)phenyl)urea], the values for the concentration for half-maximal inhibition (IC50) in test [1], in test [2] and in test [3] were 0.1 to 1 µM, less than 0.1 µM and greater than 10 µM, respectively.
In the case of `O=C(NCC(F)F)Nc1ccc(-c2nc3c(c(N4CC5CCC(C4)O5)n2)CS(=O)(=O)C3)cc1` [Example 24, 1-(4-(4-(8-oxa-3-azabicyclo[3.2.1]octan-3-yl)-6,6-dioxido-5,7-dihydrothieno[3,4-d]pyrimidin-2-yl)phenyl)-3-(2,2-difluoroethyl)urea], the IC50 was less than 0.1 µM in test [1] and 0.1 to 1 µM in test [2].
With `C[C@H]1COCCN1c1nc(-c2ccc(NC(=O)NC3CC3)cc2)nc2c1S(=O)(=O)C(C)(C)C2` [Example 37, (S)-1-cyclopropyl-3-(4-(6,6-dimethyl-4-(3-methylmorpholino)-5,5-dioxido-6,7-dihydrothieno[3,2-d]pyrimidin-2-yl)phenyl)urea], the figures for the IC50 in test [2] and in test [3] were 0.1 to 1 µM and greater than 10 µM, respectively.
Turning to `CC1c2c(nc(-c3ccc(NC(=O)NC4CC4)cc3)nc2N2C3CCC2COC3)CS1(=O)=O` (stereo not drawn) [Example 33, 1-(4-(4-(3-oxa-8-azabicyclo[3.2.1]octan-8-yl)-5-methyl-6,6-dioxido-5,7-dihydrothieno[3,4-d]pyrimidin-2-yl)phenyl)-3-cyclopropylurea], the IC50 in test [1] and in test [2] was less than 0.1 µM each time.
Turning to `O=C(Nc1ccc(-c2nc3c(c(N4CC5CCC(C4)O5)n2)CS(=O)(=O)C3)cc1)NC1CC1` [Example 20, 1-(4-(4-(8-oxa-3-azabicyclo[3.2.1]octan-3-yl)-6,6-dioxido-5,7-dihydrothieno[3,4-d]pyrimidin-2-yl)phenyl)-3-cyclopropylurea], the figures for the IC50 in test [1] and in test [2] were 0.1 to 1 µM and less than 0.1 µM, respectively.
Consider `C[C@@H]1c2c(N3CCOC[C@@H]3C)nc(-c3ccc(NC(=O)NC4CC4)cc3)nc2C(C)(C)S1(=O)=O` [Example 82, 1-cyclopropyl-3-(4-((R)-5,7,7-trimethyl-4-((S)-3-methylmorpholino)-6,6-dioxido-5,7-dihydrothieno[3,4-d]pyrimidin-2-yl)phenyl)urea], for which, in test [2], the IC50 was less than 0.1 µM.
Turning to `CC1c2c(nc(-c3ccc(NC(=O)NC4CC4)cc3)nc2N2CCOC[C@@H]2C)CS1(=O)=O` (mixture of isomers) [Example 6, 1-cyclopropyl-3-(4-(5-methyl-4-((S)-3-methylmorpholino)-6,6-dioxido-5,7-dihydrothieno[3,4-d]pyrimidin-2-yl)phenyl)urea], the IC50 in test [1] and in test [2] was less than 0.1 µM each time.
`C[C@H]1COCCN1c1nc(-c2ccc(NC(=O)NC3CC3)cc2)nc2c1CSCC2` [Example 3, (S)-1-cyclopropyl-3-(4-(4-(3-methylmorpholino)-7,8-dihydro-5H-thiopyrano[4,3-d]pyrimidin-2-yl)phenyl)urea]: the IC50 in test [1] and in test [2] was less than 0.1 µM each time.
Take `C[C@@H]1CN(c2nc(-c3ccc(NC(=O)NC4CC4)cc3)nc3c2CS(=O)(=O)C3)C[C@H](C)O1` [Example 19, 1-cyclopropyl-3-(4-(4-((2S,6R)-2,6-dimethylmorpholino)-6,6-dioxido-5,7-dihydrothieno[3,4-d]pyrimidin-2-yl)phenyl)urea]: in test [2], the IC50 fell in the range of 1 to 10 µM.
`CCNC(=O)Nc1ccc(-c2nc3c(c(N4CCOC[C@@H]4C)n2)CS(=O)(=O)C3)cc1` [Example 11, (S)-1-ethyl-3-(4-(4-(3-methylmorpholino)-6,6-dioxido-5,7-dihydrothieno[3,4-d]pyrimidin-2-yl)phenyl)urea]: the IC50 in test [1] was less than 0.1 µM; in test [3], greater than 10 µM.
For `CC(C)NC(=O)Nc1ccc(-c2nc3c(c(N4CCOC[C@@H]4C)n2)CS(=O)(=O)C3)cc1` [Example 25, (S)-1-isopropyl-3-(4-(4-(3-methylmorpholino)-6,6-dioxido-5,7-dihydrothieno[3,4-d]pyrimidin-2-yl)phenyl)urea], the IC50 in test [1] and in test [2] was 0.1 to 1 µM in each case.
Regarding `CC1c2c(nc(-c3ccc(NC(=O)NC4CC4)cc3)nc2N2CC3CCC(C2)O3)CS1(=O)=O` (stereo not drawn) [Example 34, 1-(4-(4-(8-oxa-3-azabicyclo[3.2.1]octan-3-yl)-5-methyl-6,6-dioxido-5,7-dihydrothieno[3,4-d]pyrimidin-2-yl)phenyl)-3-cyclopropylurea], the half-inhibitory concentration (IC50) in test [1] and in test [2] was less than 0.1 µM each time.
Compound `CC1c2c(N3CCOCC3)nc(-c3ccc(NC(=O)NCCF)cc3)nc2C(C)(C)S1(=O)=O` (stereo not drawn) [Example 81, 1-(2-fluoroethyl)-3-(4-(5,7,7-trimethyl-4-morpholino-6,6-dioxido-5,7-dihydrothieno[3,4-d]pyrimidin-2-yl)phenyl)urea] registered an IC50 in test [2] of less than 0.1 µM.
Regarding `C[C@@H]1COCCN1c1nc(-c2ccc(NC(=O)NC3CC3)cc2)nc2c1CS(=O)(=O)C2` [Example 17, (R)-1-cyclopropyl-3-(4-(4-(3-methylmorpholino)-6,6-dioxido-5,7-dihydrothieno[3,4-d]pyrimidin-2-yl)phenyl)urea], the IC50 is less than 0.1 µM in test [1] and 0.1 to 1 µM in test [2].
In the case of `C[C@H]1COCCN1c1nc(-c2ccc(NC(=O)NC3CC3)cc2)nc2c1CS(=O)(=O)C2(C)C` [Example 30, (S)-1-cyclopropyl-3-(4-(7,7-dimethyl-4-(3-methylmorpholino)-6,6-dioxido-5,7-dihydrothieno[3,4-d]pyrimidin-2-yl)phenyl)urea], the IC50 in test [1] and in test [2] was less than 0.1 µM each time.
For `CNC(=O)Nc1ccc(-c2nc3c(c(N4CC5CCC(C4)O5)n2)CS(=O)(=O)C3)cc1` [Example 21, 1-(4-(4-(8-oxa-3-azabicyclo[3.2.1]octan-3-yl)-6,6-dioxido-5,7-dihydrothieno[3,4-d]pyrimidin-2-yl)phenyl)-3-methylurea], the results for the IC50 in test [1] and in test [2] were 0.1 to 1 µM and less than 0.1 µM, respectively.
As for `C[C@H]1COCCN1c1nc(-c2ccc(NC(=O)NCC(F)F)cc2)nc2c1CS(=O)(=O)C2` [Example 23, (S)-1-(2,2-difluoroethyl)-3-(4-(4-(3-methylmorpholino)-6,6-dioxido-5,7-dihydrothieno[3,4-d]pyrimidin-2-yl)phenyl)urea], the IC50 in test [1] was 0.1 to 1 µM; in test [2], less than 0.1 µM.
As to `C[C@H]1COCCN1c1nc(-c2ccc(NC(=O)Nc3cccnc3)cc2)nc2c1CS(=O)(=O)C2` [Example 36, (S)-1-(4-(4-(3-methylmorpholino)-6,6-dioxido-5,7-dihydrothieno[3,4-d]pyrimidin-2-yl)phenyl)-3-(pyridin-3-yl)urea], the IC50 in test [2] was less than 0.1 µM; in test [3], greater than 10 µM.
On to `CC1c2nc(-c3ccc(NC(=O)NC4CC4)cc3)nc(N3CCOC[C@@H]3C)c2CS1(=O)=O` (stereo partly drawn) [Example 7, 1-cyclopropyl-3-(4-(7-methyl-4-((S)-3-methylmorpholino)-6,6-dioxido-5,7-dihydrothieno[3,4-d]pyrimidin-2-yl)phenyl)urea], for which the IC50 in test [1] and in test [2] was less than 0.1 µM in each case.
